# Where two headings read alike, the source gives them in different places.
# Columns and labels:
# [1] = molecular target: QuantiLum Recombinant Luciferase (Photinus pyralis, UniProt P08659); test: Bioluminescence quantification of compound luciferase inhibition; conditions: for Emax: read-out: LucInhib max inhibition
# [2] = system: Plasmodium cynomolgi exoerythrocytic-stage small (hypnozoites) and large (liver stage schizonts) parasites; test: P. cynomolgi liver assay in primary hepatocytes; conditions: for inhibition at 0.1 µM / inhibition at 1 µM / inhibition at 10 µM: Plasmodium cynomolgi, Hepatocyte
# HepG2-A16-CD81EGFP cells [3] = test: cells; conditions: Homo sapiens; for IC50: HepG2, read-out: Tox IC50; for inhibition at 10 µM: HepG2, read-out: Tox max inhibition (%) @ 10 uM
# [4] = system: Plasmodium berghei (Pb-Luc) exoerythrocytic-stage parasites; test: microbe, parasite or virus in culture; conditions: for inhibition at 10 µM: read-out: PbLuc max inhibition (%) @ 10 uM
# [5] = system: Pb-Luc exoerythrocytic-stage parasites in Huh7.5.1 cells; test: Pb-Luc time of action assay (modified 384-well luciferase assay); conditions: Plasmodium berghei
# [6] = system: P. falciparum 3D7 parasites; test: Asexual erythrocytic-stage SYBR Green I proliferation assay, 1536-well; type: cell-based, Plasmodium falciparum; conditions: Plasmodium falciparum
# [7] = system: P. falciparum Dd2 erythrocytic stage; test: Dd2 erythrocytic-stage assay (SYBR Green) for DOS compounds; conditions: for IC50: read-out: Erythrocytic-stage (Pf Dd2) IC50, Figure 4b
# HepG2-A16-CD81EGFP cells [8] = system: HepG2-A16-CD81EGFP cells
# [9] = system: Plasmodium berghei (Pb-Luc) exoerythrocytic-stage parasites
# [10] = only compound of the set tested with exposure; cited from earlier work
# Plasmodium DHODH enzyme = molecular target: T1, Plasmodium DHODH enzyme (Plasmodium falciparum, UniProt Q08210); test: DHODH assay; conditions: data not shown
# T1 sequence (Q08210 24-569): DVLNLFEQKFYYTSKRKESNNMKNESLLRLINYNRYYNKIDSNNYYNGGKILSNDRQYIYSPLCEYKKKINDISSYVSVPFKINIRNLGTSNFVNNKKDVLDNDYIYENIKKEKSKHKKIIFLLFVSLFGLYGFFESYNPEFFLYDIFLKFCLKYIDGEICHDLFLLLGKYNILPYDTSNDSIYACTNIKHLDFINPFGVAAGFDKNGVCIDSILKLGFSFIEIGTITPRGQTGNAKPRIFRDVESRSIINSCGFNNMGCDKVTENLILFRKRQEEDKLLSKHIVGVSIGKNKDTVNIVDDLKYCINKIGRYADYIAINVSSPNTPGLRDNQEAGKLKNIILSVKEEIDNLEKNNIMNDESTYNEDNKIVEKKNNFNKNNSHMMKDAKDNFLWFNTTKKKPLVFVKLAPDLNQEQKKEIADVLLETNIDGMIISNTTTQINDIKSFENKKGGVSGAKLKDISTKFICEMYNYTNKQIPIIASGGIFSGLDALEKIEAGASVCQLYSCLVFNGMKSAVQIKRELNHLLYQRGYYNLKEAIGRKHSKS
# Huh7.5.1 cells = test: Cytotoxicity in Huh7.5.1 cells (Figure S4); conditions: at 10 μM
# [11] = system: P. berghei expressing GFP (Pb-GFP) in Huh7.5.1 cells; test: Flow cytometry assay of traversal, invasion, EEF frequency and EEF development; type: cell-based, Plasmodium berghei; conditions: 2 hours post infection; 1 μM
# [12] = read-out: % inhibition normalized to untreated control, Large
# [13] = read-out: % inhibition normalized to untreated control, Small
# [14] = HepG2, read-out: HepG2 Tox% @ 50 uM rep1
# [15] = HepG2, read-out: HepG2 Tox% @ 50 uM rep2
# [16] = read-out: Inhibition% @ 50 uM rep1
# [17] = read-out: Inhibition% @ 50 uM rep2
# [18] = read-out: PbLuc IC50, dose response, 1/3 dilutions, max conc. 10 or 50 uM, unit inferred
# [19] = Huh-7.5.1, read-out: Pb-Luc IC50, Treatment: 1
# [20] = Huh-7.5.1, read-out: Pb-Luc IC50, Treatment: 2
# [21] = Huh-7.5.1, read-out: Pb-Luc IC50, Treatment: 3
# [22] = Huh-7.5.1, read-out: Pb-Luc IC50, Treatment: 4
# [23] = Huh-7.5.1, read-out: Pb-Luc IC50, Treatment: 5
# [24] = Huh-7.5.1, read-out: Pb-Luc IC50, Treatment: 6
# [25] = 3D7, read-out: P. falciparum (blood) IC50, Table S1, validation set of 50 antimalarials
# [26] = read-out: P. berghei (liver) IC50, Table S1, validation set of 50 antimalarials, Pb-Luc
# [27] = read-out: Exoerythrocytic-stage Pb-Luc IC50, Figure 4b, first assay
# [28] = read-out: Exoerythrocytic-stage Pb-Luc IC50, Figure 4b, second assay (value in parentheses)
# QuantiLum Recombinant Luciferase, sequence (P08659 whole entry): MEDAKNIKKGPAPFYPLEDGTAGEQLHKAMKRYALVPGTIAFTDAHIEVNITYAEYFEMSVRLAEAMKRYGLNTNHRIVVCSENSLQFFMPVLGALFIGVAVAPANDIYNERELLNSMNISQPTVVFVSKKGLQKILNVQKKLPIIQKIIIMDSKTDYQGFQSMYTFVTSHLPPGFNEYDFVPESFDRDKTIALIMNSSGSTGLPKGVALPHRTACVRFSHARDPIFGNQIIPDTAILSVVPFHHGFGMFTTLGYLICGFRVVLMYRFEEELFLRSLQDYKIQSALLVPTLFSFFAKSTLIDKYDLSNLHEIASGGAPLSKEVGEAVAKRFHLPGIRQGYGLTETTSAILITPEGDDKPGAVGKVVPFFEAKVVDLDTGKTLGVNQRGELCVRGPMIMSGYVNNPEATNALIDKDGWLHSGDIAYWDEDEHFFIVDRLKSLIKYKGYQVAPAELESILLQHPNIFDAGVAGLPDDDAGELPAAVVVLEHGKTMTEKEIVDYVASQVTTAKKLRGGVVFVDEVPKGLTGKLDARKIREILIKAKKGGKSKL
SMILES,"inhibition at 0.1 µM [2, 12] [%]","inhibition at 1 µM [2, 12] [%]","inhibition at 10 µM [2, 12] [%]","inhibition at 0.1 µM [2, 13] [%]","inhibition at 1 µM [2, 13] [%]","inhibition at 10 µM [2, 13] [%]","IC50 [5, 19] [nM]","IC50 [5, 20] [nM]","IC50 [5, 21] [nM]","IC50 [5, 22] [nM]","IC50 [5, 23] [nM]","IC50 [5, 24] [nM]","IC50 [6, 25] [nM]","IC50 [4, 26] [nM]",other results
COc1ccccc1CNC(=O)CCn1c(=O)[nH]c2ccccc2c1=O [MMV665916],6,2,-13,20,-13,-15,5730,5780,8160,4290,786,370,–,–,"IC50 [1]: > 20 µM; Emax [1]: 15%; cytotoxicity at 50 µM (HepG2-A16-CD81EGFP cells [3]; [14]): -21%; cytotoxicity at 50 µM (HepG2-A16-CD81EGFP cells [3]; [15]): -23%; IC50 (HepG2-A16-CD81EGFP cells [3]): > 10 µM; inhibition at 10 µM (HepG2-A16-CD81EGFP cells [3]): -2.14%; inhibition at 50 µM [4, 16]: 99%; inhibition at 50 µM [4, 17]: 99%; IC50 [4, 18]: 44.3 nM; inhibition at 10 µM [4]: 100%"
"CCc1nc(N)nc(N)c1-c1ccc(Cl)cc1 [Pyrimethamine, reference compound]",–,–,–,–,–,–,122,21,252,19.7,18.8,18.9,19.9,5.1,–
O=C(Nc1cccc(F)c1)N1CCCCN2[C@H](CO)[C@@H](c3ccc(C#Cc4cccnc4)cc3)[C@@H]2C1 [BRD47390],–,–,–,–,–,–,–,–,–,–,–,–,–,–,"IC50 [7]: 2580 nM; CC50 (HepG2-A16-CD81EGFP cells [8]): > 10 µM; IC50 [9, 27]: 360 nM; IC50 [9, 28]: 230 nM"
"O=C(NCCN1CCCC1)c1cc(-c2ccc(CN3CCOCC3)cc2)nc2ccc(F)cc12 [DDD107498, reference compound]",–,–,–,–,–,–,2.2,1.6,0.8,1.1,0.9,0.7,–,–,–
Brc1ccc(Nc2nc3ccccc3nc2Nc2ccc(Br)cc2)cc1 [MMV007224],23,43,96,30,20,67,–,–,–,–,–,–,–,–,"activity against small or large forms ([2]; at 10 μM, in words): moderate activity; cytotoxicity at 50 µM (HepG2-A16-CD81EGFP cells [3]; [14]): 100%; IC50 (HepG2-A16-CD81EGFP cells [3]): 1.94 µM; inhibition at 50 µM (HepG2-A16-CD81EGFP cells [3]; HepG2, read-out: Tox max inhibition (%) @ 50 uM): 99%; inhibition at 50 µM [4, 16]: 103%; inhibition at 50 µM [4, 17]: 103%; IC50 [4, 18]: 170 nM; inhibition at 50 µM ([4]; read-out: PbLuc max inhibition (%) @ 50 uM): 101%; pharmacokinetic exposure in vivo [10]: any pharmacokinetic exposure in vivo"
Cc1ccc(N2C3c4ccccc4N(S(=O)(=O)c4ccc(C)cc4)C2c2ccccc2N3S(=O)(=O)c2ccc(C)cc2)cc1 [MMV007160],17,14,0,17,-25,-11,792,285,2880,177,198,179,–,–,"IC50 [1]: > 20 µM; Emax [1]: 14%; cytotoxicity at 50 µM (HepG2-A16-CD81EGFP cells [3]; [14]): -4.53%; cytotoxicity at 50 µM (HepG2-A16-CD81EGFP cells [3]; [15]): -10%; IC50 (HepG2-A16-CD81EGFP cells [3]): > 10 µM; inhibition at 10 µM (HepG2-A16-CD81EGFP cells [3]): 10%; inhibition at 50 µM [4, 16]: 103%; inhibition at 50 µM [4, 17]: 105%; IC50 [4, 18]: 36.7 nM; inhibition at 10 µM [4]: 110%"
CCCNC(=O)N1[C@H](CO)[C@H](c2ccc(C#Cc3cccc(F)c3)cc2)[C@@H]1C#N [BRD9781],–,–,–,–,–,–,–,–,–,–,–,–,–,–,"IC50 [7]: 8550 nM; activity in a DHODH assay (Plasmodium DHODH enzyme): inactive; IC50 [9, 27]: 80 nM; IC50 [9, 28]: 40 nM; IC50 ([9]; read-out: Pb-Luc IC50, Figure 4a, stereoisomers tested in dose response, listed as BRD9781/7539 series SRR): 39 nM"
COc1cccc(C=Cc2nc(=O)c3ccccc3o2)c1OC [MMV666693],22,-3,15,29,16,30,172,20,297,15,16,12,–,–,"IC50 [1]: 5.33 µM; Emax [1]: 89%; cytotoxicity in Huh7.5.1 cells (Huh7.5.1 cells): slight cytotoxicity; cytotoxicity at 50 µM (HepG2-A16-CD81EGFP cells [3]; [14]): -0.938%; cytotoxicity at 50 µM (HepG2-A16-CD81EGFP cells [3]; [15]): 7%; IC50 (HepG2-A16-CD81EGFP cells [3]): > 10 µM; inhibition at 10 µM (HepG2-A16-CD81EGFP cells [3]): 123%; IC50 ([6]; 3D7, read-out: erythrocytic-stage P. falciparum IC50, values reported in Table S1, Additional File 1): < 100 nM; inhibition at 50 µM [4, 16]: 102%; inhibition at 50 µM [4, 17]: 103%; IC50 [4, 18]: 9.82 nM; inhibition at 10 µM [4]: 108%; effect on sporozoite invasion [11]: not affected; effect on sporozoite traversal of hepatocytes [11]: slight effect"
"O=C1C(O)=C([C@H]2CC[C@H](c3ccc(Cl)cc3)CC2)C(=O)c2ccccc21 [Atovaquone, reference compound]",–,–,–,–,–,–,34,2.8,7.9,1.6,1.1,0.9,< 0.4,0.25,–
"COc1cc(NC(C)CCCN)c2ncccc2c1 (stereo not drawn) [Primaquine, reference compound]",1,3,13,4,19,24,–,–,–,–,–,–,–,–,"IC50 ([6]; 3D7, read-out: P. falciparum (blood) IC50): 695 nM; IC50 ([4]; read-out: P. berghei (liver) IC50): 705 nM"
CCCNC(=O)N1[C@H](C#N)[C@H](c2ccc(C#Cc3cccc(F)c3)cc2)[C@H]1CO [BRD7539],–,–,–,–,–,–,–,–,–,–,–,–,–,–,"IC50 [7]: 10 nM; IC50 [9, 28]: 2 nM; IC50 ([9]; read-out: Pb-Luc IC50, Figure 4a, stereoisomers tested in dose response, listed as BRD9781/7539 series SSS): 2 nM"
"CC1(C)N=C(N)N=C(N)N1c1ccc(Cl)cc1 [Cycloguanil, reference compound]",–,–,–,–,–,–,–,–,–,–,–,–,3.1,7,–
"CCN(CC)CCCC(C)Nc1cc(OC)cc2cccnc12 (stereo not drawn) [Pamaquine, reference compound]",–,–,–,–,–,–,–,–,–,–,–,–,> 10000,> 12500,–
"CC(=O)N(O)CCCCCNC(=O)CCC(=O)N(O)CCCCCNC(=O)CCC(=O)N(O)CCCCCN [Deferoxamine, reference compound]",–,–,–,–,–,–,–,–,–,–,–,–,> 10000,> 12500,–
CS(=O)(=O)N1[C@H](C#N)[C@H](c2ccc(C#Cc3cccc(F)c3)cc2)[C@H]1CO [BRD0326],–,–,–,–,–,–,–,–,–,–,–,–,–,–,"erythrocytic-stage activity ([7]; in words): no erythrocytic-stage activity; IC50 [7]: > 10000 nM; activity in a DHODH assay (Plasmodium DHODH enzyme): inactive; CC50 (HepG2-A16-CD81EGFP cells [8]): > 10 µM; IC50 [9, 27]: 300 nM; IC50 [9, 28]: 150 nM; IC50 ([9]; read-out: Pb-Luc IC50, Figure 4a, stereoisomers tested in dose response): 152 nM; IC50 ([9]; read-out: Pb-Luc IC50, Figure 4a, stereoisomers tested in dose response, listed as BRD0326 SSS): < 1000 nM"

# From paper PMC4890880 (ACS infectious diseases, 2016)
